In patent publication US20240043439A1, “COMPOUNDS AS C5AR INHIBITORS” (Kira Pharmaceuticals (Suzhou) Ltd., priority 2020, published 2024) one finds IC50 data, which are given here for 15 compounds.

Experiment [1] addresses human C5a receptor (C5aR) (Homo sapiens (Human), UniProt P21730). Briefly: Inhibition of C5a-C5aR binding (biotinylated human C5a, U937/C5aR cells, FACS). The method in brief:
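Binding read by flow cytometry as FITC-streptavidin signal (30 min on ice) on washed cells after a 120 min on-ice incubation of compound with biotinylated human C5a (30 nM working solution). Cells used were C5aR-transfected U937, suspended at 3×10^6 cells/ml in PBS containing 0.1% BSA.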

Experiment [2] concerns the target T1, C5aR (Homo sapiens (Human), UniProt P21730). Briefly: Calcium mobilization (U937/C5aR or HEK293/C5aR cells, FLIPR). The class given is cell-based. The following applies: agonist human C5a at EC80, FLIPR. The essentials:
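FLIPR calcium-flux read-out using Fluo-4 Direct-loaded C5aR-expressing U937 or HEK293 cells stimulated with human C5a at its EC80. Compound was applied for 60 min before dye loading (50 min at 37 °C plus 10 min at room temperature) and agonist addition.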
In general terms: Calcium flux is commonly read through the fluorescence of an indicator in the cells.

Experiment [3] concerns the target T1, C5aR. In words: Inhibition of C5a-C5aR binding determined by cell migration assay (U937/C5aR cells). The class given is cell-based. The following applies: U937/C5aR cell migration towards human C5a, 180 min. The procedure:
Migration assay was performed by using polycarbonate membrane with 3.0 µm pore (Corning). U937/C5aR cells were collected and washed twice by PBS; cells were suspended in Hank's balanced salt solution (HBSS)+1% FBS buffer at the density of 6×10^6 cells/ml. Cells were premixed with compound and added to insert well, ligand human C5a and compound were added to bottom well in order, gently mix, incubate for 30 min at 37° C., […]. Put insert plate into bottom well, migrate for 180 min at 37° C., […]. Gently remove the insert well, add 50 μl CellTiter-Glo (Promega), gently shaking for 5 min at room temperature, transfer 150 μl mixture to black plate and read luminescence intensity by
microplate reader (BioTek).

Chain of human C5a receptor (C5aR) (P21730 whole entry): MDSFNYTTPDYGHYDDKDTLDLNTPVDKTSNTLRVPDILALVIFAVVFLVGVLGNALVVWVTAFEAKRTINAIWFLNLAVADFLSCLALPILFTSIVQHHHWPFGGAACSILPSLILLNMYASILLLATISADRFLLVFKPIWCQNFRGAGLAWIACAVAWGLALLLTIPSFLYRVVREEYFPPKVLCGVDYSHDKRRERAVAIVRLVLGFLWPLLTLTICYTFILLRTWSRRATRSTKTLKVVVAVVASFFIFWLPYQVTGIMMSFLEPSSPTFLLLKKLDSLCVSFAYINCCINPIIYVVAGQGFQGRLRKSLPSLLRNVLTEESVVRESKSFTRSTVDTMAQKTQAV
T1 sequence (P21730 whole entry): as above

Regarding `Cc1cccc(F)c1C(=O)N1C2CCC[C@@H]2C[C@H](C(=O)Nc2ccc3cccnc3c2)[C@@H]1c1ccc(NC2CCCC2)cc1` (mixture of isomers) [Compound 73, cis-2-(4-(cyclopentylamino)phenyl)-1-(2-fluoro-6-methylbenzoyl)-N-(quinolin-7-yl)octahydro-1H-cyclopenta[b]pyridine-3-carboxamide], the half-maximal inhibitory concentration (IC50) (in experiment [1]; on C5aR [2]; at C5aR [3]) was 0.05 to 0.5 µM each time.
Take `Cc1cccc(F)c1C(=O)N1[C@@H]2CCC[C@@H]2C[C@H](C(=O)Nc2ccc3cnn(C4COC4)c3c2)[C@@H]1c1ccc(NC2CCCC2)cc1` (racemic) [Compound 59, cis-2-(4-(cyclopentylamino)phenyl)-1-(2-fluoro-6-methylbenzoyl)-N-(1-(oxetan-3-yl)-1H-indazol-6-yl)octahydro-1H-cyclopenta[b]pyridine-3-carboxamide]: the results for the IC50 (in experiment [1]; on C5aR [2]; on C5aR [3]) were 0.05 to 0.5 µM, 0.5 to 2 µM and 0.05 to 0.5 µM, respectively.
With `Cc1ccc(NC(=O)[C@H]2C[C@H]3CCC[C@H]3N(C(=O)c3c(C)cccc3F)[C@H]2c2ccc(NC3CCCC3)cc2)cc1C#N` (racemic) [Compound 62, cis-N-(3-cyano-4-methylphenyl)-2-(4-(cyclopentylamino)phenyl)-1-(2-fluoro-6-methylbenzoyl)octahydro-1H-cyclopenta[b]pyridine-3-carboxamide], the 50% inhibitory concentration (IC50) (in experiment [1]; at C5aR [2]; on C5aR [3]) was 0.05 to 0.5 µM in each case.
On to `Cc1cccc(F)c1C(=O)N1[C@@H]2CCC[C@@H]2C[C@H](C(=O)Nc2ccc3ncoc3c2)[C@@H]1c1ccc(NC2CCCC2)cc1` (racemic) [Compound 67, cis-N-(benzo[d]oxazol-6-yl)-2-(4-(cyclopentylamino)phenyl)-1-(2-fluoro-6-methylbenzoyl)octahydro-1H-cyclopenta[b]pyridine-3-carboxamide], for which the IC50 (commonly the concentration that gives 50% inhibition) in experiment [1] is under 0.05 µM; on C5aR [2], 0.05 to 0.5 µM; on C5aR [3], 0.05 to 0.5 µM.
`Cc1cccc(F)c1C(=O)N1[C@@H]2CCC[C@@H]2C[C@H](C(=O)Nc2cccc(S(C)(=O)=O)c2)[C@@H]1c1ccc(NC2CCCC2)cc1` (racemic) [Compound 70, cis-2-(4-(cyclopentylamino)phenyl)-1-(2-fluoro-6-methylbenzoyl)-N-(3-(methylsulfonyl)phenyl)octahydro-1H-cyclopenta[b]pyridine-3-carboxamide]: the IC50 in experiment [1] is 0.5 to 2 µM; on C5aR [2] it was 2 to 10 µM; at C5aR [3], 0.5 to 2 µM.
For the compound `Cc1ccc(NC(=O)[C@H]2CC[C@@H]3CCc4cccc(F)c4C(=O)N3C2c2ccc(NC3CCCC3)cc2)cc1C(F)(F)F` (relative stereo) [Compound 41, cis-4-(4-(cyclopentylamino)phenyl)-7-fluoro-N-(4-methyl-3-(trifluoromethyl)phenyl)-6-oxo-1,2,3,4,6,11,12,12a-octahydrobenzo[e]pyrido[1,2-a]azepine-3-carboxamide], the IC50 was in the range of 0.5 to 2 µM in experiment [1], 2 to 10 µM on C5aR [2] and 0.05 to 0.5 µM at C5aR [3].
Regarding `Cc1cccc(F)c1C(=O)N1C2CCC[C@@H]2C[C@H](C(=O)Nc2cccc(C(F)(F)F)c2)[C@@H]1c1ccc(NC2CCCC2)cc1` (relative stereo) [Compound 46, cis-2-(4-(cyclopentylamino)phenyl)-1-(2-fluoro-6-methylbenzoyl)-N-(3-(trifluoromethyl)phenyl)octahydro-1H-cyclopenta[b]pyridine-3-carboxamide], the IC50 (in experiment [1]; on C5aR [2]; at C5aR [3]) was 0.05 to 0.5 µM each time.
For the compound `Cc1cccc(F)c1C(=O)N1C2CCC[C@@H]2C[C@H](C(=O)Nc2cccnc2)[C@@H]1c1ccc(NC2CCCC2)cc1` (relative stereo) [Compound 57, cis-2-(4-(cyclopentylamino)phenyl)-1-(2-fluoro-6-methylbenzoyl)-N-(pyridin-3-yl)octahydro-1H-cyclopenta[b]pyridine-3-carboxamide], the figures for the IC50 (in experiment [1]; on C5aR [2]; at C5aR [3]) were 0.05 to 0.5 µM, 2 to 10 µM and 0.05 to 0.5 µM, respectively.
Consider `Cc1cccc(F)c1C(=O)N1C(c2ccc(NC3CCCC3)cc2)C(C(=O)Nc2ccc3c(c2)CCN(C)C3)C[C@@H]2CCC[C@@H]21` (relative stereo) [Compound 77, cis-2-(4-(cyclopentylamino)phenyl)-1-(2-fluoro-6-methylbenzoyl)-N-(2-methyl-1,2,3,4-tetrahydroisoquinolin-6-yl)octahydro-1H-cyclopenta[b]pyridine-3-carboxamide], for which the IC50 is 2 to 5 µM in experiment [1], 2 to 10 µM at C5aR [2] and over 5 µM on C5aR [3].
As to `Cc1cccc(F)c1C(=O)N1C(c2ccc(NC3CCCC3)cc2)C(C(=O)Nc2cnc3cnn(C)c3c2)C[C@@H]2CCC[C@@H]21` (relative stereo) [Compound 78, cis-2-(4-(cyclopentylamino)phenyl)-1-(2-fluoro-6-methylbenzoyl)-N-(1-methyl-1H-pyrazolo[4,3-b]pyridin-6-yl)octahydro-1H-cyclopenta[b]pyridine-3-carboxamide], the IC50 in experiment [1] lay in the range of 0.05 to 0.5 µM; at C5aR [2], 0.5 to 2 µM; at C5aR [3], 0.05 to 0.5 µM.
Regarding `Cc1ccc(NC(=O)C2C[C@@H]3CCC[C@@H]3N(C(=O)c3c(C)cccc3F)C2c2ccc(NC3CCOCC3)cc2)cc1C(F)(F)F` (relative stereo) [Compound 88, cis-1-(2-fluoro-6-methylbenzoyl)-N-(4-methyl-3-(trifluoromethyl)phenyl)-2-(4-((tetrahydro-2H-pyran-4-yl)amino)phenyl)octahydro-1H-cyclopenta[b]pyridine-3-carboxamide], the half-maximal inhibitory concentration (IC50) was 0.05 to 0.5 µM in experiment [1], under 0.05 µM on C5aR [2] and under 0.05 µM at C5aR [3].
For `Cc1cccc(F)c1C(=O)N1C2CCC[C@@H]2C[C@H](C(=O)Nc2ccc3cccnc3c2)[C@@H]1c1ccc(NC2CCOCC2)cc1` (relative stereo) [Compound 90, cis-1-(2-fluoro-6-methylbenzoyl)-N-(quinolin-7-yl)-2-(4-((tetrahydro-2H-pyran-4-yl)amino)phenyl)octahydro-1H-cyclopenta[b]pyridine-3-carboxamide], the half-inhibitory concentration (IC50) (in experiment [1]; on C5aR [2]; on C5aR [3]) was 0.05 to 0.5 µM each time.
As for `Cc1ccc(NC(=O)[C@H]2CCCN(c3nccc4cccnc34)[C@H]2c2ccc(N(C(=O)OCc3ccccc3)C3CCCC3)cc2)cc1C(F)(F)F` [Compound 164, benzyl cyclopentyl(4-((2R,3S)-3-((4-methyl-3-(trifluoromethyl)phenyl)carbamoyl)-1-(1,7-naphthyridin-8-yl)piperidin-2-yl)phenyl)carbamate], the concentration for half-maximal inhibition (IC50) was 2 to 10 µM at C5aR [2] and 2 to 5 µM on C5aR [3].
Regarding `Cc1ccc(NC(=O)[C@H]2CCCN[C@H]2c2ccc(N(c3nccc4cccnc34)C3CCCC3)cc2)cc1C(F)(F)F` [Compound 168, (2R,3S)-2-(4-(cyclopentyl(1,7-naphthyridin-8-yl)amino)phenyl)-N-(4-methyl-3-(trifluoromethyl)phenyl)piperidine-3-carboxamide], the IC50 is 2 to 10 µM at C5aR [2] and over 5 µM on C5aR [3].
The corresponding values for `Cc1cccc(F)c1C(=O)N1CCC[C@H](c2nc3cc(C(C)(C)C)ccc3o2)[C@@H]1c1ccc(NC2CCCC2)cc1` [Compound 181, ((2R,3S)-3-(5-(tert-butyl)benzo[d]oxazol-2-yl)-2-(4-(cyclopentylamino)phenyl)piperidin-1-yl)(2-fluoro-6-methylphenyl)methanone] are 2 to 10 µM and over 5 µM.
